Converted amounts (≈) assume the structure as drawn.
Tests used:
[1] = Hygroscopicity by DVS test, with XRPD before and after; type: physicochemical; conditions: for Water uptake at 25° C., 80% / Water uptake at 25° C., 90%: DVS; for Water uptake at 25° C., 80%: 80% relative humidity; for Water uptake at 25° C., 90%: 90% relative humidity
Protocol: The dynamic vapor sorption diagrams of the present disclosure were collected on Intrinsic-type and Intrinsic Plus-type dynamic vapor sorption instruments of SMS company. The process parameters of the dynamic vapor sorption test of the present disclosure were as follows:
Protection gas and its flow rate: N2, 200 mL/minute
Minimum dm/dt equilibration time: 10 minutes
Maximum Equilibration Time: 180 minutes
Relative humidity range: 0% RH-95% RH-0% RH, 50% RH-95% RH-0% RH
Relative humidity gradient: 10% (0% RH-90% RH-0% RH), 5% (90% RH-95% RH and 95% RH-90% RH).
Weigh approximately 10 mg of a form of formula (I) (i.e., Form A from WO2020234779A1), 10 mg of Form J and 10 mg of amorphous for DVS test, and then collect the obtained solid for XRPD analysis. The DVS plots of Form A, Form J and amorphous were shown in FIGS. 6, 8 and 10, and the XRPD overlay were shown in
Following is Description and definition of hygroscopicity (see appendix XIX J, guidance for hygroscopicity evaluation of Pharmacopoeia of the People's Republic of China 2010): […]

[2] = Intrinsic dissolution of compressed thin tablet; type: physicochemical; conditions: pH 1.5 aqueous HCl solution
Protocol: Approximately 100 mg of each of Form J (from example 1) and Form A (from WO2020234779A1) were compressed by intrinsic dissolution mold under 10 kN pressure to obtain a thin tablet with surface area of 1.0 cm2, respectively. Dissolution experiment was performed on the tablets, and the corresponding result was summarized in Table 4, dissolution profile was shown in FIG. 16.

[3] = Kinetic solubility in SGF, FaSSIF, FeSSIF and pure water (HPLC); conditions: for solubility kinetic at 1 h / solubility kinetic at 4 h / solubility kinetic at 24 h: thermodynamic from solid
Protocol: (§1) Suspend Form J (from example 1), amorphous (from example 2) and Form A (from WO2020234779A1) in Simulated Gastric Fluid (SGF), Fasted-State Simulated Intestinal Fluid (FaSSIF), Fed-State Simulated Intestinal Fluid (FeSSIF) and pure water, respectively. After equilibrium for 1 hour, 8 hours and 24 hours, filter the solution for HPLC test.

[4] = Solid-state stability (XRPD and HPLC purity); type: physicochemical; conditions: for Purity: HPLC; for Solid form: XRPD
Protocol: Weigh appropriate amount of Form J (from example 1) into a 5-mL glass vial, and then seal the vial with parafilm (pricked 5 pinholes). Place the vial under 25° C./60% RH and 40° C./75% RH for some time, and then separate several solids out for XRPD and HPLC purity test.

Crystal habit by PLM = type: physicochemical; conditions: compared with Form A
Protocol: About 10 mg of Form J (from example 1) and Form A (from WO2020234779A1) were weighed and placed onto a glass slide, respectively, the solid were dispersed with several vacuum pump oil, and then covered with a cover glass. The samples were observed using PLM.

PSD test = type: physicochemical; conditions: Isopar G (0.2% lecithin), before and after sonication for 30 s, compared with Form A
Protocol: Approximately 10-30 mg of each of Form J (from example 1) and Form A (from WO2020234779A1) were added into 5 mL Isopar G (0.2% lecithin) to form a suspension, respectively. The suspension was loaded into SDC system for data collection, which was collected before and after sonication for 30 s.

[5] = Sticking propensity (powder adhering to punch tip); type: physicochemical; conditions: 6 mm circle punches, 10 kN pressure, compared with Form A
Protocol: Approximately 30 mg of each of Form J (from example 1) and Form A (from WO2020234779A1) were compressed by 6 mm circle punches under 10 kN pressure, respectively. The loading mass (ML) and tablet mass (MT) were recorded, and mass percentage of powder adhering to punch tip (ma) was calculated by the equation of ma=(ML−MT)/ML×100%.

physchem = conditions: thermodynamic from solid
Protocol: as §1

C=CC(=O)N(C)CCOc1c(N)ncnc1-c1cc(F)cc(NC(=O)c2ccc(C3CC3)cc2F)c1C [Form A, N-(3-(6-amino-5-(2-(N-methylacrylamido)ethoxy)pyrimidin-4-yl)-5-fluoro-2-methylphenyl)-4-cyclopropyl-2-fluorobenzamide, reference compound]
Water uptake at 25° C., 80% [1]: 0.54%
Water uptake at 25° C., 90% [1]: 0.68%
Cumulative dissolution amount ([2]; 5 mins): 0.5 mg
Cumulative dissolution amount ([2]; 10 mins): 0.9 mg
Cumulative dissolution amount ([2]; 15 mins): 1.3 mg
Cumulative dissolution amount ([2]; 20 mins): 1.6 mg
Cumulative dissolution amount ([2]; 25 mins): 2.1 mg
Cumulative dissolution amount ([2]; 30 mins): 2.7 mg
Cumulative dissolution amount ([2]; 60 mins): 3.2 mg
Cumulative dissolution amount ([2]; 75 mins): 4.3 mg
Kinetic solubility ([3]; FaSSIF, 1 hr): 6.1 µg/mL
Kinetic solubility ([3]; FaSSIF, 4 hr): 6.5 µg/mL
Kinetic solubility ([3]; FaSSIF, 24 hr): 5 µg/mL
Kinetic solubility ([3]; FeSSIF, 1 hr): 20 µg/mL
Kinetic solubility ([3]; FeSSIF, 4 hr): 22 µg/mL
Kinetic solubility ([3]; FeSSIF, 24 hr): 22 µg/mL
Kinetic solubility ([3]; H2O, 1 hr): 3.7 µg/mL
Kinetic solubility ([3]; H2O, 4 hr): 3.9 µg/mL
Kinetic solubility ([3]; H2O, 24 hr): 2.9 µg/mL
Kinetic solubility ([3]; SGF, 1 hr): 690 µg/mL
Kinetic solubility ([3]; SGF, 4 hr): 710 µg/mL
Kinetic solubility ([3]; SGF, 24 hr): 700 µg/mL

C=CC(=O)N(C)CCOc1c(N)ncnc1-c1cc(F)cc(NC(=O)c2ccc(C3CC3)cc2F)c1C [Amorphous, N-(3-(6-amino-5-(2-(N-methylacrylamido)ethoxy)pyrimidin-4-yl)-5-fluoro-2-methylphenyl)-4-cyclopropyl-2-fluorobenzamide]
Water uptake at 25° C., 80% [1]: 3.37%
Water uptake at 25° C., 90% [1]: 4.14%
Hygroscopicity ([1]; class per Pharmacopoeia of the People's Republic of China 2010): Hygroscopic (increase in mass is less than 15 percent and equal to or greater than 2 percent)
Kinetic solubility ([3]; FaSSIF, 24 hr): 11 µg/mL
solubility kinetic at 1 h ([3]; Fasted-State Simulated Intestinal Fluid (FaSSIF), fassif, 1 hr): 10 µg/mL (≈ 19.7 µM)
solubility kinetic at 4 h ([3]; Fasted-State Simulated Intestinal Fluid (FaSSIF), fassif, 4 hr): 11 µg/mL (≈ 21.7 µM)
solubility kinetic at 1 h ([3]; Fed-State Simulated Intestinal Fluid (FeSSIF), fessif, 1 hr): 33 µg/mL (≈ 65 µM)
solubility kinetic at 4 h ([3]; Fed-State Simulated Intestinal Fluid (FeSSIF), fessif, 4 hr): 34 µg/mL (≈ 67 µM)
solubility kinetic at 24 h ([3]; Fed-State Simulated Intestinal Fluid (FeSSIF), fessif, 24 hr): 33 µg/mL (≈ 65 µM)
Kinetic solubility ([3]; SGF, 1 hr): 1400 µg/mL
solubility kinetic at 4 h ([3]; Simulated Gastric Fluid (SGF), simulated gastric fluid, SGF, 4 hr): 1000 µg/mL (≈ 1970 µM)
solubility kinetic at 24 h ([3]; Simulated Gastric Fluid (SGF), simulated gastric fluid, SGF, 24 hr): 950 µg/mL (≈ 1870 µM)
solubility kinetic at 1 h ([3]; pure water, water, H2O, 1 hr): 4.6 µg/mL (≈ 9.06 µM)
solubility kinetic at 4 h ([3]; pure water, water, H2O, 4 hr): 4.4 µg/mL (≈ 8.67 µM)
solubility kinetic at 24 h ([3]; pure water, water, H2O, 24 hr): 4.3 µg/mL (≈ 8.47 µM)

C=CC(=O)N(C)CCOc1c(N)ncnc1-c1cc(F)cc(NC(=O)c2ccc(C3CC3)cc2F)c1C [Form J, N-(3-(6-amino-5-(2-(N-methylacrylamido)ethoxy)pyrimidin-4-yl)-5-fluoro-2-methylphenyl)-4-cyclopropyl-2-fluorobenzamide]
Water uptake at 25° C., 80% [1]: 0.53%
Water uptake at 25° C., 90% [1]: 0.60%
Dissolution compared with Form A [2]: larger total dissolution amount and higher cumulative dissolution rate than Form A
Cumulative dissolution amount ([2]; 5 mins): 1.1 mg
Cumulative dissolution amount ([2]; 10 mins): 2.5 mg
Cumulative dissolution amount ([2]; 15 mins): 2.9 mg
Cumulative dissolution amount ([2]; 20 mins): 3.3 mg
Cumulative dissolution amount ([2]; 25 mins): 3.9 mg
Cumulative dissolution amount ([2]; 30 mins): 4.7 mg
Cumulative dissolution amount ([2]; 60 mins): 5.6 mg
Cumulative dissolution amount ([2]; 75 mins): 7.2 mg
Form change and HPLC purity decrease on storage ([4]; 25° C./60% RH and 40° C./75% RH for 8 weeks): no obvious form change and HPLC purity decrease
Purity/initial Purity ([4]; 25° C./60% RH, 1 week): 99.6%
Purity ([4]; 25° C./60% RH, 1 week): 99.09 area %
Solid form ([4]; 25° C./60% RH, 1 week): Form J
Purity/initial Purity ([4]; 25° C./60% RH, 2 weeks): 99.0%
Purity ([4]; 25° C./60% RH, 2 weeks): 98.48 area %
Solid form ([4]; 25° C./60% RH, 2 weeks): Form J
Purity/initial Purity ([4]; 25° C./60% RH, 4 weeks): 99.2%
Purity ([4]; 25° C./60% RH, 4 weeks): 98.71 area %
Solid form ([4]; 25° C./60% RH, 4 weeks): Form J
Purity/initial Purity ([4]; 25° C./60% RH, 8 weeks): 98.7%
Purity ([4]; 25° C./60% RH, 8 weeks): 97.94 area %
Solid form ([4]; 25° C./60% RH, 8 weeks): Form J
Purity/initial Purity ([4]; 40° C./75% RH, 1 week): 99.6%
Purity ([4]; 40° C./75% RH, 1 week): 99.05 area %
Solid form ([4]; 40° C./75% RH, 1 week): Form J
Purity/initial Purity ([4]; 40° C./75% RH, 2 weeks): 98.9%
Purity ([4]; 40° C./75% RH, 2 weeks): 98.39 area %
Solid form ([4]; 40° C./75% RH, 2 weeks): Form J
Purity/initial Purity ([4]; 40° C./75% RH, 4 weeks): 99.0%
Purity ([4]; 40° C./75% RH, 4 weeks): 98.42 area %
Solid form ([4]; 40° C./75% RH, 4 weeks): Form J
Purity/initial Purity ([4]; 40° C./75% RH, 8 weeks): 98.0%
Purity ([4]; 40° C./75% RH, 8 weeks): 97.32 area %
Solid form ([4]; 40° C./75% RH, 8 weeks): Form J
Crystal habit (Crystal habit by PLM): better crystal habit than Form A
Particle size distribution (PSD test): more uniform particle size distribution than Form A
Sticking propensity [5]: lower sticking propensity than Form A
solubility kinetic at 1 h (physchem; fassif): 24 µg/mL (≈ 47.3 µM)
solubility kinetic at 4 h (physchem; fassif): 14 µg/mL (≈ 27.6 µM)
solubility kinetic at 24 h (physchem; fassif): 16 µg/mL (≈ 31.5 µM)
solubility kinetic at 1 h (physchem; fessif): 130 µg/mL (≈ 256 µM)
solubility kinetic at 4 h (physchem; fessif): 53 µg/mL (≈ 104 µM)
solubility kinetic at 24 h (physchem; fessif): 57 µg/mL (≈ 112 µM)
solubility kinetic at 1 h (physchem; simulated gastric fluid): 2400 µg/mL (≈ 4730 µM)
solubility kinetic at 4 h (physchem; simulated gastric fluid): 2700 µg/mL (≈ 5320 µM)
solubility kinetic at 24 h (physchem; simulated gastric fluid): 2600 µg/mL (≈ 5120 µM)
solubility kinetic at 1 h (physchem; water): 12 µg/mL (≈ 23.6 µM)
solubility kinetic at 4 h (physchem; water): 15 µg/mL (≈ 29.6 µM)
solubility kinetic at 24 h (physchem; water): 19 µg/mL (≈ 37.4 µM)

— patent publication US20230265056A1, “CRYSTALLINE FORMS OF BENZAMIDE COMPOUND AND PROCESS FOR PREPARING THE SAME” (CRYSTAL PHARMATECH CO., LTD., priority 2020, published 2023)
